Laboratory results as given in patent US11103458B2, “Stimulant abuse-deterrent compositions” (4P-Pharma, priority 2015, dated 2021).
“And” between values parts separate entries of the source, which are not always exact repeats. Identical values can stand only once. “Also recorded” adds a separate entry of the source. Counter-ions that a name gives are not always drawn. Like-named read-outs stand apart in the source and are kept apart here. Marks after values point to notes of the source that are not given here.

Legend:
[1] = test system: dogs; test: Behavior observation: activity levels and clinical signs in dogs (Example 8); settings: for video observation: behavior associated to hyperactivity: first 60-100 min
Protocol: (§1) Six groups comprising six dogs were assigned for this Example. Methylphenidate (MPH) was used as the model inducer. […] Behavioral observation was performed during 6 hours following test items administration and blood samples were taken on 4 dogs per group at 0.25, 0.5, 1, 1.5, 3, 4 and 6 hours post-administration for pharmacokinetic (PK) analysis.
Animals: Mixed breed dogs (5 Males+7 females/12/3 to 5 years/10.5 to 18.5 kg, from SPM Biocameltec) were used in the studies outlined in this example.
Administration of the test items: Each Test Item was administrated to 6 dogs per group. The administration was performed PO or IV according to group allocation in Table 3. The study was performed in 3 cycles and a period of wash-out of at least 10 days was respected between each cycle.
Behavior observation: The animals were observed every 10 minutes during the first 2 hours post administration, and every 20 minutes thereafter, for 6 hours. Observations included respiratory, circulatory, autonomic and central nervous systems, somatomotor activity and behavior pattern (e.g. sedation, respiration rate, changes in mentation, gait, and the like).

[2] = PK analysis of Methylphenidate and Apomorphine in dogs' plasma (Example 8); settings: for change in PK profile on co-administration: t-test: no statistical significance
Protocol: as §1
Blood Collection and PK analysis: For blood collection, a 5 ml syringe was used and blood sampling was directly collected at the jugular vein. Blood samples were collected in K3-EDTA tubes at the following time points: 0.25, 0.5, 1, 1.5, 3, 4 and 6 hours post-administration (7 samples). At each time point, 6 ml of blood was collected for 4 drug-treated dogs. Plasma samples were analyzed using LC-MS/MS and PK analysis was performed using the PK Solutions Version 2.0 program.

[3] = test system: Male C57BI mice; test: Apomorphine mediated inhibition of RITALIN®-induced hyperactivity in activity box (pilot study, Example 5); assay type: in vivo; settings: for locomotion after apomorphine alone: given at 5 mg/kg, 5 mg/kg
Protocol: Male mice C57BI weighing about 22 g were used in the study.
Male C57BI mice weighing about 22 g were used in the study.
Mice were administered saline solutions of the two actives as follows:
Methylphenidate was dissolved in saline 0.9% to a concentration of 0.5 mg/ml,
Both compounds' solutions were administered at dose volume of […].
Animals' motor locomotion in four groups (1-4 M) was assessed in the activity box. Animals were placed in the activity box and several parameters were observed including movement time, distance, V-plan entries, margin vs. center time, and other parameters. Groups 1-3 M were monitored for 30 minutes each, during which all parameters were assessed at 2 minutes intervals. In the 4 M group, animals were monitored for 60 minutes with 2 minutes assessment intervals. The assessment in the activity box was done in total darkness (red light was used for illumination). The main parameters that were calculated in this study were the move time, total distance and vertical plan entry. The observation for groups 1-3 M were made during 30 minutes with 2 minutes calculation intervals of each parameter. In the fourth group (4 M) the observations were extended for 60 minutes with 2 minutes calculation intervals

[4] = test system: mice; test: Apomorphine blocking of RITALIN®-induced hyperactivity at human equivalent dosing (second study, Example 6); assay type: in vivo; settings: mice (n=4)
[5] = test system: C57bl/6J male mice; test: Open Field Test (OFT, activity box) with Methylphenidate, Apomorphine and their combination (Example 7); assay type: in vivo; settings: for Center Time / Distance / Rearing Time / Velocity: Day 1, group average; for effect on Methylphenidate-increased distance travelled and velocity: Methylphenidate 5 mg/kg, dose dependent
Protocol: Eight groups comprising eight or nine C57bl/6J male mice were assigned for this study. Methylphenidate (MPH) was used as the model inducer. […] Spontaneous activity in Open Field Test (OFT) was performed.
Each Test Item and vehicle formulation was administrated to 8/9 mice per group. The administration was performed PO or IP according to group allocation in Table 1.
The open field test (OFT) is a commonly used qualitative and quantitative measure of general locomotor activity and willingness to explore in rodents. Open Field test (OFT) was performed according to Pharmaseed SOP No. 113: “Open Field for Mice Testing”. OFT was performed 15 or 30 min after test item IP or PO administration, respectively.
Fifteen minutes after test item/vehicle administration, mice were placed at the center of an open field box (43×43×40 cm) approximately at the same time of the day. On each side of the open field box, two frames placed at 2 and 5 cm height with 16 photocell beams per side ensured movement detection. The computer defined grid lines that divided the open field into two compartments: margin and center. Several variables were recorded during a 15 minute session of spontaneous activity including: • Indices of motor exploratory activity: distance travelled, moving time, and velocity • Indices of habituation: distance travelled during the last 5-min period in percent of the first+last 5-min periods. • Indices of anxiety: percentage of distance travelled and time spent in the central zone of the open-field. • Curiosity activity: rearing episodes and time Open Field Test (Activity Box)
OFT was performed 15 or 30 min after test item IP or PO administration, respectively. The parameters measured were distance and velocity as indicators of general motility, time spent in center as an indicator for anxiety and rearing time as indicator of the animal's curiosity.

[6] = test system: dogs; test: Apomorphine-induced emesis in dogs (Example 8); assay type: in vivo; settings: for apomorphine-induced emesis: apomorphine IV 0.15 mg/kg, alone (group 3) or with MPH 1.7 mg/kg (group 5)
Description: Methylphenidate (MPH) was used as the model inducer.

[7] = test system: dogs; settings: general statement, not this study, cited from earlier work

COC(=O)C(c1ccccc1)C1CCCCN1 (centres unmarked) [Methylphenidate, methylphenidate HCl]
activity levels ([1]; MPH IV 1.7 mg/kg (group 1), dogs, notably during the first 60-100 min, HCl, 1.7 mg/kg): caused increased activity levels; also recorded: induced increased activity levels
activity levels ([1]; MPH IV 1.7 mg/kg (group 1), dogs, notably during the first 60-100 min, listed as MPH, HCl, 1.7 mg/kg): significantly increased dog activity levels
time until which clinical signs were observed post administration ([1]; MPH IV 1.7 mg/kg (group 1), at least the 30 first minutes, up to 110 minutes in one dog): 50 to 70 min
activity levels ([1]; Methylphenidate PO 0.3 mg/kg (group 2), dogs, score corresponding to normal dogs): did not induce significant modification of activity levels
video observation: behavior associated to hyperactivity ([1]; group 1 (MPH IV 1.7 mg/kg)): constant barking, jumping, walking/circling and a very dynamic state
change in PK profile on co-administration ([2]; Methylphenidate co-administered with Apomorphine, dogs): somewhat higher values
effect of co-administration of Apomorphine on bioavailability or any other PK parameters ([2]; Methylphenidate, dogs): not affected
bioavailability ([2]; Methylphenidate, dogs, PO 0.3 mg/kg vs IV 1.7 mg/kg): comparable to values published previously in the literature
motor activity (move time and distance) ([3]; RITALIN® 5 mg/kg, mice, activity box): induced hyperactivity
motor activity (move time and distance covered) ([3]; RITALIN® 8 mg/kg, mice, activity box, HCl, 8 mg/kg): induced hyperactivity
change of move time and distance over time ([3]; RITALIN® induced group, 30 minutes observation): no significant change over time
animals' activity post RITALIN® administration ([4]; RITALIN® 8.25 mg/Kg): drastic increase in the animals' activity
Center Time ([5]; MPH 5 mg/kg IP (2M)): 89.8 s
Distance ([5]; MPH 5 mg/kg IP (2M)): 3147.1 cm
Rearing Time ([5]; MPH 5 mg/kg IP (2M)): 114.3 s
Velocity ([5]; MPH 5 mg/kg IP (2M)): 4.3 cm/s
Center Time ([5]; MPH 5 mg/kg PO (3M)): 88.2 s
Rearing Time ([5]; MPH 5 mg/kg PO (3M)): 104.5 s
Velocity ([5]; MPH 5 mg/kg PO (3M)): 3.4 cm/s
Distance ([5]; MPH 5 mg/kg PO (3M), p < 0.05 vs. 2M): 2198.4* cm
distance travelled and velocity compared to Vehicle-treated controls (1M) ([5]; Methylphenidate 5 mg/kg IP (2M), Day 1, OFT, HCl): significantly increased; also recorded: caused elevation in locomotor activity

CN1CCc2cccc3c2[C@H]1Cc1ccc(O)c(O)c1-3 [Apomorphine, apomorphine]
time to emesis post administration ([6]; apomorphine IV 0.15 mg/kg (group 3 and group 5), dogs): 1 to 2 min
apomorphine-induced emesis ([6]; dogs): inducing emesis
apomorphine-induced emesis ([6]; dogs, listed as apomorphine): observed in all treated dogs
induction of emesis ([6]; apomorphine PO 0.027 mg/kg (group 4), dogs): did not induce emesis
Recorded time for observed emesis following apomorphine administration, individual dogs ([6]; group #3 Apo IV 0.15 mg/kg, Dog 1 to Dog 6, listed as Apo, 0.15 mg/kg): 1.0 minutes and 1.5 minutes and 1.1 minutes (2×) and 0.8 minutes and 0.9 minutes
Recorded time for observed emesis following apomorphine administration, Mean ([6]; group #3 Apo IV 0.15 mg/kg, mean of 6 dogs): 1.1 min
effect on MPH-induced clinical signs ([1]; apomorphine administered concomitantly with MPH (group 5), IV): abolished these MPH-induced clinical signs
effect on MPH-induced increase in activity ([1]; combination with Apomorphine 0.15 mg/kg IV (group 5), MPH 1.7 mg/kg IV, dogs): diminished the observed increases in activity; also recorded: significantly reduced the observed increase in activity; also recorded: significantly reduced these effects
video observation: behavior associated to hyperactivity ([1]; group 5 (apomorphine 0.15 mg/kg + MPH 1.7 mg/kg IV)): only with circling episodes
plasma levels ([2]; Apomorphine IV 0.15 mg/kg and PO 0.027 mg/kg, dogs' plasma, especially following oral administration): low levels
change in PK profile on co-administration ([2]; Apomorphine co-administered with Methylphenidate, dogs): somewhat lower values
locomotion after apomorphine alone ([3]; mice, activity box): caused a sudden ataxia in animals, with nearly still locomotion
locomotion after apomorphine alone ([3]; mice, activity box, listed as apomorphine): induces hypoactivity and nearly ataxic behavior
effect on RITALIN®-induced hyperactivity ([3]; apomorphine injected 5 minutes after RITALIN®, apomorphine 5 mg/kg, RITALIN® 8 mg/kg): totally abolished the effect of RITALIN®; also recorded: total dominance of the effect induced by apomorphine
entering the vertical plan ([3]; apomorphine, mice, activity box): abolished
dose to induce vomiting in dogs ([7]; IV): greater than 0.02 mg/kg
dose to induce vomiting in dogs ([7]; PO): greater than 4 mg/kg
dose to induce vomiting in dogs ([7]; SC): greater than 0.3 mg/kg
animals movement / RITALIN®-induced hyperactivity after apomorphine injection ([4]; apomorphine 1.23 mg/Kg with RITALIN® 8.25 mg/Kg): dramatically decreased the animals movement
rearing time compared to Methylphenidate IP treated group (2M) ([5]; Apomorphine 0.9 mg/kg IP in combination with Methylphenidate (7M), Day 1): significantly reduced rearing time
antagonism of Methylphenidate-caused elevation in locomotor activity ([5]; Apomorphine 0.05-0.9 mg/kg IP with Methylphenidate 5 mg/kg): antagonized this effect in a dose-dependent manner
effect on Methylphenidate-increased distance travelled and velocity ([5]; combination with Apomorphine 0.9 mg/kg IP (7M), Day 1): significantly reduced
effect on Methylphenidate-increased distance travelled and velocity ([5]; combination with Apomorphine 0.3 mk/kg IP (6M), Day 1): significantly reduced
